Results as given in patent US8557848B2, “4,5-ring annulated indole derivatives for treating or preventing of HCV and related viral infections” (Merck Sharp & Dohme Corp., priority 2006, dated 2013).
Like-named read-outs stand apart in the source and are kept apart here.

Columns and labels:
[1] = target: T1, HCV NS5B polymerase (NS5BΔCT21, from HCV-Con 1 isolate, genotype 1b) (Hepatitis C virus genotype 1b, UniProt Q9WMX2); test: HCV NS5B Polymerase Inhibition Assay; assay type: biochemical
T1 construct: A soluble C-terminal 21-amino acid truncated NS5B enzyme form; polyhistidine (C); made in house; host or cells: Escherichia coli
Source text: A chemically synthesized 75-mer version, designated DCoH75, whose sequence matches the 3′-end of D-RNA, and DCoH75ddC, where the 3′-terminal cytidine of DCoH75 is replaced by dideoxycytidine, were used for assaying the NS5B enzyme activity as described in Ferrari et al., 12th International Symposium on HCV and Related Viruses, P-306 (2005). The sequence of the template RNA was: 5′-UGUGCCGGUCUUUCUGAACGGGAUAUAAACCUGGCCAGCUUCAUCGAACAAGUUGCCGUGUCUAUGACAUAGAUC-3′. A soluble C-terminal 21-amino acid truncated NS5B enzyme form (NS5BΔCT21, from HCV-Con 1 isolate, genotype 1b, Genbank accession number AJ238799) was produced and purified from Escherichia coli as C-terminal polyhistidine-tagged fusion protein as described in Ferrari et al., J. Virol. 73:1649-1654 (1999). A typical assay contained 20 mM Hepes pH 7.3, 10 mM MgCl2, 60 mM NaCl, 100 μg/ml BSA, 20 units/ml RNasin, 7.5 mM DTT, 0.1 μM ATP/GTP/UTP, 0.026 μM CTP, 0.25 mM GAU, 0.03 μM RNA template, 20 μCi/ml [^33P]-CTP, 2% DMSO, and 30 or 150 nM NS5B enzyme. Reactions were incubated at 22° C. for 2 hours, then stopped by adding 150 mM EDTA, washed in DE81 filter plate in 0.5M di-basic sodium phosphate buffer, pH 7.0, and counted using Packard TopCount after the addition of scintillation cocktail. Polynucleotide synthesis was monitored by the incorporation of radiolabeled CTP. The effect of the Compounds of Formula (I) on the polymerase activity was evaluated by adding various concentrations of a Compound of Formula (I), typically in 10 serial 2-fold dilutions, to the assay mixture. The starting concentrations ranged from 200 μM to 1 μM. An IC50 value for the inhibitor, defined as the compound concentration that provides 50% inhibition of polymerase activity, was determined by fitting the cpm data to the Hill equation Y=100/(1+10^((LogIC50-X)*HillSlope)), where X is the logarithm of compound concentration, and Y is the % inhibition. Ferrari et al., 12th International Symposium on HCV and Related Viruses, P-306 (2005) described in detail this assay procedure. It should be noted that such an assay as described is exemplary and not intended to limit the scope of the invention. The skilled practitioner can appreciate that modifications including but not limited to RNA template, primer, nucleotides, NS5B polymerase form, buffer composition, can be made to develop similar assays that yield the same result for the efficacy of the compounds and compositions described in the invention.
NS5B polymerase inhibition data for selected Compounds of Formula (I) is provided below in Table 2, wherein the compound numbers correspond to the compound numbering set forth in the above specification.

[2] = test system: HCV replicon cells (replicon RNA level); test: Cell-Based HCV Replicon Assay; conditions: Hepatitis C virus, 72 h; replicon RNA level by real time PCR (Taqman), cells harvested on day 3; read-out: EC50
Method: To measure cell-based anti-HCV activity of the a Compound of Formula (I), replicon cells were seeded at 5000 cells/well in 96-well collagen I-coated Nunc plates in the presence of the Compound of Formula (I). Various concentrations of a Compound of Formula (I), typically in 10 serial 2-fold dilutions, were added to the assay mixture, with the starting concentration ranging from 250 μM to 1 μM. The final concentration of DMSO was 0.5%, fetal bovine serum was 5%, in the assay media. Cells were harvested on day 3 by the addition of 1× cell lysis buffer (Ambion cat #8721). The replicon RNA level was measured using real time PCR (Taqman assay). The amplicon was located in 5B. The PCR primers were: 5B.2F, ATGGACAGGCGCCCTGA; 5B.2R, […]; the probe sequence was FAM-labeled CACGCCATGCGCTGCGG. GAPDH RNA was used as endogenous control and was amplified in the same reaction as NS5B (multiplex PCR) using primers and VIC-labeled probe recommended by the manufacturer (PE Applied Biosystem). The real-time RT-PCR reactions were run on ABI PRISM 7900HT Sequence Detection System using the following program: 48° C. for 30 min, 95° C. for 10 min, 40 cycles of 95° C. for 15 sec, 60° C. for 1 min. The ΔCT values (CT5B-CTGAPDH) were plotted against the concentration of test compound and fitted to the sigmoid dose-response model using XLfit4 (MDL). EC50 was defined as the concentration of inhibitor necessary to achieve ΔCT=1 over the projected baseline; EC90 the concentration necessary to achieve ΔCT=3.2 over the baseline. Alternatively, to quantitate the absolute amount of replicon RNA, a standard curve was established by including serially diluted T7 transcripts of replicon RNA in the Taqman assay. All Taqman reagents were from PE Applied Biosystems. Such an assay procedure was described in detail in e.g. Malcolm et al., Antimicrobial Agents and Chemotherapy 50: 1013-1020 (2006).
HCV Replicon assay data for selected Compounds of Formula (I) is provided below in Table 1, wherein the compound numbers correspond to the compound numbering set forth in the above specification.

[3] = NS5B polymerase inhibition, [33P]-CTP incorporation, 22° C. for 2 hours, read-out: IC50

Row | Compound | IC50 [1, 3] [nM] | EC50 [2] [nM] | IC50 [1] [nM]
1 | O=C(O)c1c(-c2ccc[nH]c2=O)c2c3occc3ccc2n1Cc1ccccc1F [Compound 1] | < 25 | < 500 | –
2 | CS(=O)(=O)NC(=O)c1c(-c2ccc[nH]c2=O)c2c3occc3ccc2n1Cc1ccc(F)cc1F [Compound 4] | 25 to 100 | < 500 | –
3 | CS(=O)(=O)NC(=O)c1c(-c2ccc[nH]c2=O)c2c3occc3ccc2n1Cc1ccccc1F [Compound 4] | < 25 | < 500 | –
4 | CS(=O)(=O)NC(=O)c1c(-c2ccc[nH]c2=O)c2c3ccoc3ccc2n1Cc1ccc(F)cc1F [Compound 9] | < 25 | > 1500 | –
5 | COc1ccc(S(=O)(=O)NC(=O)c2c(-c3ccc[nH]c3=O)c3c4ccoc4ccc3n2Cc2ccc(F)cc2F)cc1 [Compound 10] | 25 to 100 | > 1500 | –
6 | CS(=O)(=O)Nc1cccc(S(=O)(=O)NC(=O)c2c(-c3ccc[nH]c3=O)c3c4ccoc4ccc3n2Cc2ccc(F)cc2F)c1 [Compound 11] | 25 to 100 | > 1500 | –
7 | CS(=O)(=O)NC(=O)c1c(-c2ccc[nH]c2=O)c2c3c(ccc2n1Cc1cc(F)ccc1F)CCC3 [Compound 12] | < 25 | 500 to 1500 | –
8 | Nc1cc(Cn2c(C(=O)O)c(-c3ccc[nH]c3=O)c3c4scnc4ccc32)ccn1 [Compound 13] | > 100 | > 1500 | –
9 | Nc1cc(Cn2c(C(=O)O)c(-c3ccc[nH]c3=O)c3c4ncsc4ccc32)ccn1 [Compound 14] | < 25 | 500 to 1500 | –
10 | O=C(O)c1c(-c2ccc[nH]c2=O)c2c3occc3ccc2n1Cc1ccc(F)cc1F [Compound 16] | < 25 | 500 to 1500 | –
11 | O=C(O)c1c(-c2ccc[nH]c2=O)c2c3scnc3ccc2n1Cc1ccc(F)cc1F [Compound 16] | > 100 | > 1500 | –
12 | O=C(O)c1c(-c2ccc[nH]c2=O)c2c3ncsc3ccc2n1Cc1ccc(F)cc1F [Compound 17] | < 25 | > 1500 | –
13 | CCc1coc2c1ccc1c2c(-c2ccc[nH]c2=O)c(C(=O)O)n1Cc1cc(F)ccc1F [Compound 24] | > 100 | > 1500 | –
14 | O=C(O)c1c(-c2ccc[nH]c2=O)c2c3sccc3ccc2n1Cc1cc(F)ccc1F [Compound 33] | 25 to 100 | > 1500 | –
15 | O=C(O)c1c(-c2ccc[nH]c2=O)c2c3sccc3ccc2n1Cc1ccccc1F [Compound 34] | 25 to 100 | 500 to 1500 | –
16 | O=C(O)c1c(-c2ccc[nH]c2=O)c2c3c(ccc2n1Cc1cc(F)ccc1F)OC(F)(F)O3 [Compound 37] | < 25 | > 1500 | –
17 | O=C(O)c1c(-c2ccc[nH]c2=O)c2c3ccoc3ccc2n1Cc1ccccc1F [Compound 39] | 25 to 100 | > 1500 | –
18 | O=C(O)c1c(-c2ccc[nH]c2=O)c2c3ccoc3ccc2n1Cc1cc(F)ccc1F [Compound 40] | 25 to 100 | > 1500 | –
19 | Cc1ccccc1Cn1c(C(=O)O)c(-c2ccc[nH]c2=O)c2c3occc3ccc21 [Compound 41] | < 25 | < 500 | –
20 | CCc1coc2c1ccc1c2c(-c2ccc[nH]c2=O)c(C(=O)O)n1Cc1ccccc1F [Compound 43] | > 100 | > 1500 | –

Row | Compound | IC50 [1, 3] [nM] | EC50 [2] [nM] | IC50 [1] [nM]
21 | O=C(O)c1c(-c2ccc[nH]c2=O)c2c3occ(Cl)c3ccc2n1Cc1ccccc1F [Compound 45] | < 25 | < 500 | –
22 | O=C(O)c1c(-c2ccc[nH]c2=O)c2c3occ(Cl)c3ccc2n1Cc1cc(F)ccc1F [Compound 46] | < 25 | < 500 | –
23 | Cc1coc2c1ccc1c2c(-c2ccc[nH]c2=O)c(C(=O)O)n1Cc1cc(F)ccc1F [Compound 47] | > 100 | > 1500 | –
24 | Cc1cccc(Cn2c(C(=O)O)c(-c3ccc[nH]c3=O)c3c4occ(C)c4ccc32)c1F [Compound 48] | > 100 | > 1500 | –
25 | CS(=O)(=O)NC(=O)c1c(-c2ccc[nH]c2=O)c2c3ncsc3ccc2n1Cc1ccccc1F [Compound 50] | < 25 | < 500 | –
26 | CCOC(=O)c1c(-c2ccccc2F)c2c3c(C)c(C)[nH]c3ccc2n1Cc1ccccc1 [Compound 51] | – | > 1500 | > 100
27 | Cc1ccccc1Cn1c(C(=O)NS(C)(=O)=O)c(-c2ccc[nH]c2=O)c2c3ncsc3ccc21 [Compound 51] | – | < 500 | < 25
28 | CS(=O)(=O)NC(=O)c1c(-c2ccc[nH]c2=O)c2c3sccc3ccc2n1Cc1cc(F)ccc1F [Compound 52] | < 25 | > 1500 | –
29 | CS(=O)(=O)NC(=O)c1c(-c2ccc[nH]c2=O)c2c3c(ccc2n1Cc1ccccc1F)OC(F)(F)O3 [Compound 56] | – | > 1500 | < 25
30 | CCS(=O)(=O)NC(=O)c1c(-c2ccc[nH]c2=O)c2c3occc3ccc2n1Cc1cc(F)ccc1F [Compound 57] | < 25 | < 500 | –
31 | CS(=O)(=O)NC(=O)c1c(-c2ccc[nH]c2=O)c2c3c(ccc2n1Cc1cc(F)ccc1F)CCO3 [Compound 59] | – | < 500 | < 25
32 | Cc1ccc(Cn2c(C(=O)NS(C)(=O)=O)c(-c3ccc[nH]c3=O)c3c4occc4ccc32)c(C)c1 [Compound 60] | < 25 | < 500 | –
33 | Cc1ccccc1Cn1c(C(=O)NS(C)(=O)=O)c(-c2ccc[nH]c2=O)c2c3occc3ccc21 [Compound 61] | < 25 | < 500 | –
34 | O=C(NS(=O)(=O)C1CC1)c1c(-c2ccc[nH]c2=O)c2c3occc3ccc2n1Cc1cc(F)ccc1F [Compound 62] | < 25 | < 500 | –
35 | CC(C)S(=O)(=O)NC(=O)c1c(-c2ccc[nH]c2=O)c2c3occc3ccc2n1Cc1cc(F)ccc1F [Compound 63] | < 25 | < 500 | –
36 | CC(C)S(=O)(=O)NC(=O)c1c(-c2ccc[nH]c2=O)c2c3occc3ccc2n1Cc1ccccc1F [Compound 64] | < 25 | < 500 | –
37 | O=C(NS(=O)(=O)C1CC1)c1c(-c2ccc[nH]c2=O)c2c3occc3ccc2n1Cc1ccccc1F [Compound 65] | < 25 | < 500 | –
38 | Cc1cccc(Cn2c(C(=O)NS(C)(=O)=O)c(-c3ccc[nH]c3=O)c3c4occc4ccc32)c1F [Compound 66] | < 25 | < 500 | –
39 | CS(=O)(=O)NC(=O)c1c(-c2ccc[nH]c2=O)c2c3occc3ccc2n1Cc1ccccc1Cl [Compound 67] | < 25 | < 500 | –
40 | CCS(=O)(=O)NC(=O)c1c(-c2ccc[nH]c2=O)c2c3occc3ccc2n1Cc1ccccc1F [Compound 68] | < 25 | < 500 | –
